Data taken from US9499519B2, “Fused pyrimidine compounds and use thereof” (Medivation Technologies, Inc., priority 2012, dated 2016).
One block for each compound: values may come before it.

Tests used:
[1] = system: Akt phosphorylation induced by IGF-1R; test: Western blot analysis of Akt phosphorylation induced by IGF-1 in HT-29 cells; type: cell-based, Human; details: for pAKT relative to 0.1 nM compound: derivatives of Cpd. No. 8b; for Levels of phosphorylated AKT in treated cells (pAKT/actin): HT-29 cells, IGF-1; for p-AKT relative to levels with 0.1 nM compound: Table B2 lower part; for Normalized phosphorylated AKT (relative to actin) levels relative to 0.1 nM compound treatment: Table B2 upper part
How it was run: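 HT-29 cells grown 24 h in DME/F12 with 10% FBS, serum-starved 24 h, then exposed 2 h to compound at 0.1, 1, 10 or 100; controls received DMSO or 10 ng/mL IGF-1. Lysate soluble fractions quantified by BCA before western blotting for phospho-Akt.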

AXL [2] = biological target: T1, AXL (Homo sapiens, UniProt P30530); test: Caliper kinase assay: AXL; details: 0.01 μM
T1 sequence (P30530 26-894): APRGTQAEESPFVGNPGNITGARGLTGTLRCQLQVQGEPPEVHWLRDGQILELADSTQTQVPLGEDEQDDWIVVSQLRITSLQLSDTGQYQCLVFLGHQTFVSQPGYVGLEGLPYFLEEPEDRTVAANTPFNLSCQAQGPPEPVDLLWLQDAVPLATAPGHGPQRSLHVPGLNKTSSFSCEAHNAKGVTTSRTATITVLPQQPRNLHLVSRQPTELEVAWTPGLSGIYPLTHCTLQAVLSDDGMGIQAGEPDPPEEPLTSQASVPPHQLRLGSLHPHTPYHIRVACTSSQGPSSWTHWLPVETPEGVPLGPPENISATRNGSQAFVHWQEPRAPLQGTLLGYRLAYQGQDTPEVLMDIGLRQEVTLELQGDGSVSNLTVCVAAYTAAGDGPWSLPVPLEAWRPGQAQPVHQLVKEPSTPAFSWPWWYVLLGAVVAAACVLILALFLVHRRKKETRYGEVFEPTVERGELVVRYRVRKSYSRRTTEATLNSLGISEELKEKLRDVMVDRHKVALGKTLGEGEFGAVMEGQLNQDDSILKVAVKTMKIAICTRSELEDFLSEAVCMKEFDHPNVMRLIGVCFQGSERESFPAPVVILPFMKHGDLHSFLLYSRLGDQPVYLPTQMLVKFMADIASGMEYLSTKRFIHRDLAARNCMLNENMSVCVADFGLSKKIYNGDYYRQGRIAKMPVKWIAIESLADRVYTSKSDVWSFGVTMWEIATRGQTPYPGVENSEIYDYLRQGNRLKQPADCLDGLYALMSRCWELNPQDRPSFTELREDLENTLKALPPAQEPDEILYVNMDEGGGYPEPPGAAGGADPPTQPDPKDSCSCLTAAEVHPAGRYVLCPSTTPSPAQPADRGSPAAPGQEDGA
Protocol: (§4) The compound was tested at concentrations of 1.0×10^−8 and 1.0×10^−9 M in the RapidKinase192™ panel in duplicate. […] The screening was performed using the Caliper EZReader2, a 4-sipper LabChip, and ProfilerPro Kinase Selectivity Assay Kits 1 and 2. The assay measures the conversion of a fluorescent peptide substrate to a phosphorylated product. Briefly, the reaction mixture was introduced through a capillary sipper onto the microfluidic chip, where the substrate and product were electrophoretically separated and detected by laser-induced fluorescence. The time-dependent fluorescence signal indicates the extent of the reaction.
(§5) The kinases tested were AurA, AurB, AurC, AXL, FAK2, IGF1R, InsR, Mer, MET, Trk B and Trk C.
(§6) The assays were conducted using the Caliper LabChip 3000 and a 12-sipper LabChip as described above.

NTRK2(TRKB) = NTRK2(TRKB) (Homo sapiens, UniProt Q16620); test: Caliper kinase assay: NTRK2 (TRKB); details: Trk B, 0.01 μM
Protocol: as §4, §5, §6

TRKC(NTRK3) = TRKC(NTRK3) (Homo sapiens, UniProt Q16288); test: Caliper kinase assay: TRKC (NTRK3); details: Trk C, 0.01 μM
TRKC(NTRK3), sequence (Q16288 32-839): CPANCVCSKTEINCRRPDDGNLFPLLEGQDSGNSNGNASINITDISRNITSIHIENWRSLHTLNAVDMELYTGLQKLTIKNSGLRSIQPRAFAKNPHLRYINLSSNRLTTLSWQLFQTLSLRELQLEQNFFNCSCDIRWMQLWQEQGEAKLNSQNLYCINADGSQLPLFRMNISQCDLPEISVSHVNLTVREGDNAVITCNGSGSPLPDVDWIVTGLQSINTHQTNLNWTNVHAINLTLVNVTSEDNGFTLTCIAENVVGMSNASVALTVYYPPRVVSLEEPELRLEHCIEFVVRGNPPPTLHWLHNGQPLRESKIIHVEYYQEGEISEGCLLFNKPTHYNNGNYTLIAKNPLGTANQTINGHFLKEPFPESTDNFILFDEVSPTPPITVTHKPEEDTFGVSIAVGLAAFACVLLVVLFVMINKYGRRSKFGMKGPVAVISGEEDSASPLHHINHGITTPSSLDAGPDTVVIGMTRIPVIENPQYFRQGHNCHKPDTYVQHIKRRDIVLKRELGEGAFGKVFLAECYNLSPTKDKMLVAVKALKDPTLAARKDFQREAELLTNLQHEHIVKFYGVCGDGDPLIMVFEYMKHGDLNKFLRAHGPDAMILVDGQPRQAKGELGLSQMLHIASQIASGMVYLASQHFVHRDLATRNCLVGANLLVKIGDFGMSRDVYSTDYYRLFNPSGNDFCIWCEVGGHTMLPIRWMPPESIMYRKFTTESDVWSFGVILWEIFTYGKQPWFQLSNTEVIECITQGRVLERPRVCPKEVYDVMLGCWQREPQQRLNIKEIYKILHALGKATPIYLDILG
Protocol: as §4, §5, §6

PYK2 = PYK2 (Homo sapiens, UniProt Q14289); test: Caliper kinase assay: PYK2 (called FAK2); details: FAK2, 0.01 μM
Protocol: as §4, §5, §6

IGF-1R = biological target: T2, IGF-1R (Homo sapiens, UniProt P08069); test: In vitro IGF-1R enzymatic assay (ADP-Glo kinase assay); type: biochemical; details: activated IGF-1R
T2 construct: purchased Millipore 14-802
T2 sequence (P08069 31-1367): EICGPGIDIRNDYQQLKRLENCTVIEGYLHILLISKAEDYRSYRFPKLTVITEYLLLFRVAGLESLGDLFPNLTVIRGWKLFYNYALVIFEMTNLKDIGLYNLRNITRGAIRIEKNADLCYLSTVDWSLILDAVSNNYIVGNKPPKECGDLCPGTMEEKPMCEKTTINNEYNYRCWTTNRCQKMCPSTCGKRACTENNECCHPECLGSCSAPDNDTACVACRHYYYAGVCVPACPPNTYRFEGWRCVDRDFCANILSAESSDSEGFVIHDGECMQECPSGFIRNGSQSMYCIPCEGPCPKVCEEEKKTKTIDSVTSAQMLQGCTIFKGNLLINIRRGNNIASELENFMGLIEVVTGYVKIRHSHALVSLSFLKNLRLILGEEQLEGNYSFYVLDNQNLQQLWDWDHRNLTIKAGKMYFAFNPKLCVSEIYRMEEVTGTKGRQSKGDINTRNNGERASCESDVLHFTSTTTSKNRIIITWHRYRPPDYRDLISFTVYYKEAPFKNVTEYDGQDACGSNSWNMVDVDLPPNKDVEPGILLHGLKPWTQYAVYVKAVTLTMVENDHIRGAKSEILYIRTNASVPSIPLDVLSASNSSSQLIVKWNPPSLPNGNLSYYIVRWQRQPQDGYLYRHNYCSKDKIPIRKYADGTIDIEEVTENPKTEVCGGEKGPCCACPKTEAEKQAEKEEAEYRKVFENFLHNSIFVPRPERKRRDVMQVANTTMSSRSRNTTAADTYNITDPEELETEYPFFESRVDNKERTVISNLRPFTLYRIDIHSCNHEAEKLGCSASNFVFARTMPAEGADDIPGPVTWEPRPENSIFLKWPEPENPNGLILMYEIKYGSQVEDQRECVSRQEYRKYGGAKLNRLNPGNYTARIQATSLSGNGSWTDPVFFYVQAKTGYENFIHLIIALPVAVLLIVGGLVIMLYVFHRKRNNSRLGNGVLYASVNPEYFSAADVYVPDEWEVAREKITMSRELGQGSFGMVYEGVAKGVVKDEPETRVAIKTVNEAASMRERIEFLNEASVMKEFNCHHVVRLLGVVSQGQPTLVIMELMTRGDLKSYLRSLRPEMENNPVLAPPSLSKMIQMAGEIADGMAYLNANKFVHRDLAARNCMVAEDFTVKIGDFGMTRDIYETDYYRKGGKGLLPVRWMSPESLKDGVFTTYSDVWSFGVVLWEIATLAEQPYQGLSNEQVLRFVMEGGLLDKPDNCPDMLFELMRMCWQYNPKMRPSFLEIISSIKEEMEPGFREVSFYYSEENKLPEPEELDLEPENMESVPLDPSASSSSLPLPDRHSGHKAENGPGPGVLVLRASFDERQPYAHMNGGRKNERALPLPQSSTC
Protocol: (§1) IC50 values of the compounds of the invention against IGF-1R and IR were measured in vitro using an ADP-Glo kinase assay Kit (Promega). […] Kinase reactions in both assays were conducted at 30° C. for 20 min with increasing concentrations of compounds of the invention.
Additional compounds of the invention were screened against activated IGF-1R.

IR = biological target: T3, IR (Homo sapiens, UniProt P06213); test: In vitro IR enzymatic assay (ADP-Glo kinase assay); type: biochemical; details: activated IR
T3 construct: purchased Millipore 14-803
T3 sequence (P06213 28-1382): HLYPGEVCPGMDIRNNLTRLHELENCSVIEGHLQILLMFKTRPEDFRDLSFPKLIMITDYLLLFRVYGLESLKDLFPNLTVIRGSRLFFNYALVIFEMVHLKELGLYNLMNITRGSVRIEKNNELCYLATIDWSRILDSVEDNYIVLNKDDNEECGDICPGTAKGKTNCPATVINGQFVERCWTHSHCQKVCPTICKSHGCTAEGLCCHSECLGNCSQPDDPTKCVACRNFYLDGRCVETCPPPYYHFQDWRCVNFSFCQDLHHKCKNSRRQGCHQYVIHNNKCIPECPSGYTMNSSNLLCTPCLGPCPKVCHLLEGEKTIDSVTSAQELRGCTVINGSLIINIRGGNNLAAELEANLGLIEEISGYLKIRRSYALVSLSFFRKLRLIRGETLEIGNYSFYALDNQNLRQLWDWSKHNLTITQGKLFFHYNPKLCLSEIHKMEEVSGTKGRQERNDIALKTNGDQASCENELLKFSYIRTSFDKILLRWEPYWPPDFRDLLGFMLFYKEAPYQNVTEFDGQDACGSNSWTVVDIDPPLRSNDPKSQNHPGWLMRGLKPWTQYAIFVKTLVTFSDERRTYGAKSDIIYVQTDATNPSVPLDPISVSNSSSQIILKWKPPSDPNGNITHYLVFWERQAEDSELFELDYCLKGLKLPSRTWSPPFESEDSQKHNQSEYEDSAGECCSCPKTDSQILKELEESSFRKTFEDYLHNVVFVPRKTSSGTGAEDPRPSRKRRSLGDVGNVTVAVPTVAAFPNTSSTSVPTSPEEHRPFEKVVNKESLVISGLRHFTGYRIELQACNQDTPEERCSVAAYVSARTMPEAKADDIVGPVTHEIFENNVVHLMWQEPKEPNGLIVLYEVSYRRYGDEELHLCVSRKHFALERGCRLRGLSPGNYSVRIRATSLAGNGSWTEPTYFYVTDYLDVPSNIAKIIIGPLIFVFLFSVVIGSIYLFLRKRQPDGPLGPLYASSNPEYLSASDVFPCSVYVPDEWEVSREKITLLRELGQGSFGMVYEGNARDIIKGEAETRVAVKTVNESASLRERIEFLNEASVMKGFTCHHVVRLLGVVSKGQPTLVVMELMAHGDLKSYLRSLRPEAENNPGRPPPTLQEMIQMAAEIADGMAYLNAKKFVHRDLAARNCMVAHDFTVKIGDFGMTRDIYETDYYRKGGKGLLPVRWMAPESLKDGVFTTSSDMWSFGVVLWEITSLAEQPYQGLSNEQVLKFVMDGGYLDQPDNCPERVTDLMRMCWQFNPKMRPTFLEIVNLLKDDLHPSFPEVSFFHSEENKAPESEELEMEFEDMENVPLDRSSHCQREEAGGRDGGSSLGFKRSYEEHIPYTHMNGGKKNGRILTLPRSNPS
Protocol: as §1
Additional compounds of the invention were screened against activated IR.

Trk C = Trk C (Homo sapiens, UniProt Q16288); test: HotSpot kinase assay: Trk C; type: biochemical; details: 100 nM compound; HotSpot; read-out: % Enzyme Inhibition @ 100 nM Trk C
Trk C, sequence (Q16288 32-839): as the sequence (Q16288 32-839) above
Protocol: (§2) Each compound was tested at a concentration of 0.1 μM in single duplicate mode against the 3 kinases. Compounds were prepared as 10 mM stock solutions in DMSO prior to use in the assay. […] IC50 values and curve fits were obtained using Prism (GraphPad Software).
(§3) The screening was performed using the “HotSpot” assay platform. The assay measures the conversion of a peptide substrate to ^33P-labelled phosphorylated product. Briefly, specific kinase/substrate pairs along with required cofactors were prepared in reaction buffer. Specifically, the substrate was prepared in reaction buffer (20 mM Hepes, pH 7.5; 10 mM MgCl2; 1 mM EGTA; 0.02% Brij35; 0.02 mg/mL BSA; 0.1 mM Na3VO4; 2 mM DTT; 1% DMSO), followed by delivery of any required cofactor to the resulting substrate solution. The corresponding kinase was delivered into the substrate solution and the reaction mixture was mixed gently. Compound was delivered into the reaction mixture, followed 15-20 minutes later by addition of a mixture of ATP (Sigma, St. Louis Mo.) and ^33P ATP (specific activity 0.01 μCi/μL final; Perkin Elmer, Waltham, Mass.) to a final concentration of 10 μM-30 μM to initiate the reaction. […] The percent of enzyme inhibition was calculated based on the percent of remaining kinase activity.
as §2, with “Kinase assays were performed using additional compounds against a panel of 4 kinases: AXL; c-Met; c-Mer; and Trk C. Each” for “Each”, “[…]” for “μM”, “4” for “3”

AXL [3] = biological target: T1, AXL; test: HotSpot kinase assay: AXL; type: biochemical; details: 100 nM compound, read-out: % Enzyme Inhibition @ 100 nM AXL
Protocol: as §2, with “Kinase assays were performed using additional compounds against a panel of 4 kinases: AXL; c-Met; c-Mer; and Trk C. Each” for “Each”, “[…]” for “μM”, “4” for “3”
as §3

c-Met = c-Met (Homo sapiens, UniProt P08581); test: HotSpot kinase assay: c-Met; type: biochemical; details: 100 nM compound, read-out: % Enzyme Inhibition @ 100 nM c-MET
c-Met, sequence (P08581 25-1390): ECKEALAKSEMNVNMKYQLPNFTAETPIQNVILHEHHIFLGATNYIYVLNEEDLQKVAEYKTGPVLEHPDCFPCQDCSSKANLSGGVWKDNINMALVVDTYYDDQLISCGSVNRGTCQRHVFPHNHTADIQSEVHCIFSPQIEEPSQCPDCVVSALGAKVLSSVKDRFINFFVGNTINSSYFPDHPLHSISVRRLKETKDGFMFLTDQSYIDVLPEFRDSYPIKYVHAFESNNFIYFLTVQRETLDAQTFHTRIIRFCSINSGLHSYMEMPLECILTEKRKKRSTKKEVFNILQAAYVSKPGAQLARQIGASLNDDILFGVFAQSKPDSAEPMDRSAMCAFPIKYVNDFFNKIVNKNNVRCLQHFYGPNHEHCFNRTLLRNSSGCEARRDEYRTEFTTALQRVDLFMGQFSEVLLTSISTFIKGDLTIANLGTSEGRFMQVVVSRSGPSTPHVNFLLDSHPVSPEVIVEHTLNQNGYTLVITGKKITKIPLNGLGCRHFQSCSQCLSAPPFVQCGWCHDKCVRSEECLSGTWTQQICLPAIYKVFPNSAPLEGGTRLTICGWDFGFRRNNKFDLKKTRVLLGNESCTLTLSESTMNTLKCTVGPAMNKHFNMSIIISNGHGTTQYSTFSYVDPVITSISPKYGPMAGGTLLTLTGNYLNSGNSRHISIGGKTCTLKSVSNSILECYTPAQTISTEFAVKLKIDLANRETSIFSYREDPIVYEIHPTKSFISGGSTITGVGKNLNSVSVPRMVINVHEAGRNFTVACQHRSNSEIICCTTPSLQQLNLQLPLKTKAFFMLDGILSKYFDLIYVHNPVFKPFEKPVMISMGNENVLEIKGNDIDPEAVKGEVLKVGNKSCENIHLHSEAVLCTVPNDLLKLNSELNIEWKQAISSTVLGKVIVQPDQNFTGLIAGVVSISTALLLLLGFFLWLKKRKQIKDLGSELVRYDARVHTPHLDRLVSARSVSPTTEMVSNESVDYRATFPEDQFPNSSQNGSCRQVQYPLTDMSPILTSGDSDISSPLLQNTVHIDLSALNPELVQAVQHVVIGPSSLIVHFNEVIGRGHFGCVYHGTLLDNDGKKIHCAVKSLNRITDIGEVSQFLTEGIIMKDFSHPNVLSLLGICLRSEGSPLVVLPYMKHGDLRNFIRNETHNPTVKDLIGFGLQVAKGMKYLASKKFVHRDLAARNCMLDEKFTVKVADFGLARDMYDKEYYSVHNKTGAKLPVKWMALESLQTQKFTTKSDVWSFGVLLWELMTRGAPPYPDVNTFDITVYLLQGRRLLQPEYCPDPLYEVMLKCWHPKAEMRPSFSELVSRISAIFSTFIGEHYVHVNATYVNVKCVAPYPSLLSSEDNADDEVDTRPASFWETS
Protocol: as §2, with “Kinase assays were performed using additional compounds against a panel of 4 kinases: AXL; c-Met; c-Mer; and Trk C. Each” for “Each”, “[…]” for “μM”, “4” for “3”
as §3

c-Mer = biological target: T4, c-Mer (Homo sapiens, UniProt Q12866); test: HotSpot kinase assay: c-Mer; type: biochemical; details: 100 nM compound, read-out: % Enzyme Inhibition @ 100 nM c-MER
T4 sequence (Q12866 21-999): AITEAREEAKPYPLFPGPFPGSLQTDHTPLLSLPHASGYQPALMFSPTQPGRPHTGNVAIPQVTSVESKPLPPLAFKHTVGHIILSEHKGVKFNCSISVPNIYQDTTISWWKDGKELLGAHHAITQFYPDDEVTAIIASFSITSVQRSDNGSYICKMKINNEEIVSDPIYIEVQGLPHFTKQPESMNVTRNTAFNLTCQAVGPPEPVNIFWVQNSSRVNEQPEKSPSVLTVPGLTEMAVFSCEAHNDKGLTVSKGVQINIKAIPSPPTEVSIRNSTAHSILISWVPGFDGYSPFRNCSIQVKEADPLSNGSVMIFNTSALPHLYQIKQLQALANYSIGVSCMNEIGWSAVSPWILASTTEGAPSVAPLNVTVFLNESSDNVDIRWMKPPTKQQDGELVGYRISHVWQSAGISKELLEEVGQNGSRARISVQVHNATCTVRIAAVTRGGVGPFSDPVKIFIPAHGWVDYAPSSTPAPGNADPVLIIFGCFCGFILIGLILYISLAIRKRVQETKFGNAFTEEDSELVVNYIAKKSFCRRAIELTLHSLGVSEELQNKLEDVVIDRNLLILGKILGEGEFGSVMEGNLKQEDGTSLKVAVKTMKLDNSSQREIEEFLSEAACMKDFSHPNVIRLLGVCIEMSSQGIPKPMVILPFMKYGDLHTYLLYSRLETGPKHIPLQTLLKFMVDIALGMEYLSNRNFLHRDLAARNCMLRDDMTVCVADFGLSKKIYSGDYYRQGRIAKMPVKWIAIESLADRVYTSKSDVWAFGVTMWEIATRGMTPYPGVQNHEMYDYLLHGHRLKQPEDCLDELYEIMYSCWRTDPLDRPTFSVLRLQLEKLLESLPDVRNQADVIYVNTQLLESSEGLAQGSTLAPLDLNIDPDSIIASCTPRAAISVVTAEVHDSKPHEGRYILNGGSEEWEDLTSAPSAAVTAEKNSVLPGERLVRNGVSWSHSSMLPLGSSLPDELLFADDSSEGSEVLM
Protocol: as §2, with “Kinase assays were performed using additional compounds against a panel of 4 kinases: AXL; c-Met; c-Mer; and Trk C. Each” for “Each”, “[…]” for “μM”, “4” for “3”
as §3

Compound: O=C(Nc1ccc(F)nc1)C1CC(O)CN1c1nc2c(c(Nc3cc(C4CC4)[nH]n3)n1)CCC2 (racemic) [Compound 10d, 1-(4-(5-cyclopropyl-1H-pyrazol-3-ylamino)-6,7-dihydro-5H-cyclopenta[d]pyrimidin-2-yl)-N-(6-fluoropyridin-3-yl)-4-hydroxypyrrolidine-2-carboxamide]
pAKT relative to 0.1 nM compound ([1]; 1 nM): 0.84
pAKT relative to 0.1 nM compound ([1]; 10 nM): 0.23
pAKT relative to 0.1 nM compound ([1]; 100 nM): 0.01
inhibition of kinase (AXL [2]): strongly inhibited
inhibition of kinase (NTRK2(TRKB)): strongly inhibited
inhibition of kinase (TRKC(NTRK3)): strongly inhibited
inhibition of kinase (PYK2): strongly inhibited

Compound: O=C(Nc1ccc(F)nc1)C1CC(O)CN1c1nc2c(c(Nc3cc(C4CC4)[nH]n3)n1)CCC2 (racemic) [Compound 10a, (2S,4R)-1-(4-(5-cyclopropyl-1H-pyrazol-3-ylamino)-6,7-dihydro-5H-cyclopenta[d]pyrimidin-2-yl)-N-(6-fluoropyridin-3-yl)-4-hydroxypyrrolidine-2-carboxamide]
Levels of phosphorylated AKT in treated cells (pAKT/actin) ([1]; 0.1 nM compound): 2.28
p-AKT relative to levels with 0.1 nM compound ([1]; 0.1 nM): 1.0
Normalized phosphorylated AKT (relative to actin) levels relative to 0.1 nM compound treatment ([1]; 0.1 nM): 1.0
pAKT relative to 0.1 nM compound ([1]; 0.1 nM): 1.00
Levels of phosphorylated AKT in treated cells (pAKT/actin) ([1]; 1 nM compound): 0.54
p-AKT relative to levels with 0.1 nM compound ([1]; 1 nM): 0.2
Normalized phosphorylated AKT (relative to actin) levels relative to 0.1 nM compound treatment ([1]; 1 nM): 0.2
pAKT relative to 0.1 nM compound ([1]; 1 nM): 0.69
Levels of phosphorylated AKT in treated cells (pAKT/actin) ([1]; 10 nM compound): 0.00
p-AKT relative to levels with 0.1 nM compound ([1]; 10 nM): 0.0
Normalized phosphorylated AKT (relative to actin) levels relative to 0.1 nM compound treatment ([1]; 10 nM): 0.0
pAKT relative to 0.1 nM compound ([1]; 10 nM): 0.16
Levels of phosphorylated AKT in treated cells (pAKT/actin) ([1]; 100 nM compound): 0.01
p-AKT relative to levels with 0.1 nM compound ([1]; 100 nM): 0.0
Normalized phosphorylated AKT (relative to actin) levels relative to 0.1 nM compound treatment ([1]; 100 nM): 0.0
pAKT relative to 0.1 nM compound ([1]; 100 nM): 0.01
IC50 (IGF-1R): 33 nM
% Inh @ 30 nM Avg (IGF-1R; 30 nM, average): 32%
IC50 (IR): 33 nM
inhibition at 0.03 µM (IR; 30 nM, average, read-out: % Inh @ 30 nM Avg): 54%
inhibition of kinase (AXL [2]): strongly inhibited
inhibition of kinase (NTRK2(TRKB)): strongly inhibited
inhibition of kinase (TRKC(NTRK3)): strongly inhibited
inhibition of kinase (PYK2): strongly inhibited

Compound: O=C(Nc1ccc(F)nc1)C1CCCN1c1nc2c(c(Nc3ccc(=O)[nH]n3)n1)CCC2 (stereo not shown) [Compound 101b, N-(6-fluoropyridin-3-yl)-1-(4-(6-oxo-1,6-dihydropyridazin-3-ylamino)-6,7-dihydro-5H-cyclopenta[d]pyrimidin-2-yl)pyrrolidine-2-carboxamide]
inhibition at 0.1 µM (Trk C): < 39%
inhibition at 0.1 µM (AXL [3]): < 39%
inhibition at 0.1 µM (c-Met): < 39%
inhibition at 0.1 µM (c-Mer): < 39%

Compound: CC(C)c1cc(Nc2nc(N3CCCC3C(=O)N3CCCCC3)nc3c2CCC3)n[nH]1 (stereo not shown) [Compound 73b, (1-(4-(5-isopropyl-1H-pyrazol-3-ylamino)-6,7-dihydro-5H-cyclopenta[d]pyrimidin-2-yl)pyrrolidin2--yl)(piperidin-1-yl)methanone]
IC50 (IGF-1R): 1400 nM
IC50 (IR): 1300 nM
inhibition at 0.1 µM (Trk C): > 60%
inhibition at 0.1 µM (AXL [3]): < 39%
inhibition at 0.1 µM (c-Met): < 39%
inhibition at 0.1 µM (c-Mer): < 39%

Now from value to compound:

inhibition at 0.1 µM (Trk C): < 39%
inhibition at 0.1 µM (AXL [3]): < 39%
inhibition at 0.1 µM (c-Met): < 39%
inhibition at 0.1 µM (c-Mer): < 39%
Compound: O=C(Nc1nccs1)C1CCCN1c1nc2c(c(Nc3ncccn3)n1)CCC2 (stereo not shown) [Compound 105a, 1-(4-(pyrimidin-2-ylamino)-6,7-dihydro-5H-cyclopenta[d]pyrimidin-2-yl)-N-(thiazol-2-yl)pyrrolidine-2-carboxamide]

inhibition at 0.1 µM (Trk C): < 39%
inhibition at 0.1 µM (AXL [3]): < 39%
inhibition at 0.1 µM (c-Met): < 39%
inhibition at 0.1 µM (c-Mer): < 39%
Compound: O=C(Nc1ccc(F)nc1)C1CCCN1c1nc2c(c(Nc3ccccn3)n1)CCC2 (stereo not shown) [Compound 102a, N-(6-fluoropyridin-3-yl)-1-(4-(pyridin-2-ylamino)-6,7-dihydro-5H-cyclopenta[d]pyrimidin-2-yl)pyrrolidine-2-carboxamide]
